This is an account of results in patent publication US9175024B2, “Platinum compound having amino or alkylamino-containing succinic acid derivatives as leaving group, preparation method thereof, and use thereof” (BEIJING FSWELCOME TECHNOLOGY DEVELOPMENT CO., LTD., priority 2011, dated 2015).

Several values for one entry are separate records, joined by “and”; a condition that tells them apart may be missing. Identical values can stand only once.

The test system of one data set is normal mice. Briefly: Acute toxic effect of platinum complex on normal mice (LD50, single intravenous administration). It is filed as in vivo, Kunming mice. The settings on record: single intravenous administration in 5% glucose solution, 14 days observation, Bliss method. The method, then:
(§1) Kunming mice at 4˜6 weeks old and at the weight of 18˜22 g were taken, 50% male and 50% female. Embodiment platinum compound was dissolved with 5% glucose solution. […] Mortality and toxicity were observed after administration, totally observing 14 days, LD50 value was calculated with Bliss method according to mortality.

For another data set, the system named is Lung cancer H292. Put plainly: MTT cytotoxicity, lung cancer H292. The data set is classed as cell-based. The note with it: n = 6, Lung cancer H292. The method, then: (§2) Several kinds of tumor cells in exponential growth phase were prepared into single cell suspension, inoculated on 96 pore plat at the density of 4×10^4/hole, cultivated for 24 hours to enable to adhere to wall with 1640 culture medium containing 10% fetal calf serum (complete medium) at 37° C.; the final culture volume was 100 μl. Cell morphology was observed after culture for 24 hours.

Data set [1] has as its system Pulmonary epithelial cell BEAS-2B. Briefly: MTT cytotoxicity, pulmonary epithelial cell BEAS-2B. The data set is classed as cell-based. The settings on record: n = 6, Pulmonary epithelial cell BEAS-2B. The method, then: as §2
Another data set deals with Lewis lung cancer. Briefly: MTT cytotoxicity, Lewis lung cancer. It is filed as cell-based. The settings on record: n = 6, Lewis lung cancer. The method, then: as §2
Data set [2] deals with Colon cancer SW480. Briefly: MTT cytotoxicity, colon cancer SW480. The data set is classed as cell-based. The note with it: n = 6, Colon cancer SW480. The method, then: as §2
In data set [3] the test system is colon cancer SW480. Put plainly: In vivo antitumor activity, colon cancer SW480 in nude mice. The note with it: SW480 in male nude mice, once a week, 4 times, tumor weighed after 4 weeks. From the text:
The calculation formula of tumor inhabitation rate is: […]

Data set [4] has as its system Breast cancer MCF-7. Briefly: MTT cytotoxicity, breast cancer MCF-7. The settings on record: n = 6, Breast cancer MCF-7. The data set is classed as cell-based. The method, then: as §2
The test system of data set [5] is Breast cancer MCF-7 Cisplatin resistance strain. Put plainly: MTT cytotoxicity, breast cancer MCF-7 cisplatin resistance strain. The data set is classed as cell-based. The note with it: n = 6, Breast cancer MCF-7 Cisplatin resistance strain. The method, then: as §2
Another data set has as its system Lung cancer A549. Put plainly: MTT cytotoxicity, lung cancer A549. It is filed as cell-based. The settings on record: n = 6, Lung cancer A549. The method, then: as §2
For the next data set, the system named is Testis cell ST. Briefly: MTT cytotoxicity, testis cell ST. It is filed as cell-based. The settings on record: n = 6, Testis cell ST. The method, then:
as §2

In another data set the test system is Gastric cancer MGC803. Put plainly: MTT cytotoxicity, gastric cancer MGC803. The note with it: n = 6, Gastric cancer MGC803. The data set is classed as cell-based. The method, then: as §2
Another data set has as its system Esophagus cancer ECA109. Briefly: MTT cytotoxicity, esophagus cancer ECA109. It is filed as cell-based. The settings on record: n = 6, Esophagus cancer ECA109. The method, then:
as §2

The nature of data set [6]: Acute toxic effect of platinum complex on normal mice (LD50, single intravenous administration). The note with it: both sexes, Kunming, mouse, in vivo; single intravenous administration in 5% glucose solution, 14 days observation, Bliss method. It is filed as in vivo, Kunming mice. The method, then:
as §1

The next data set in a line: physchem. The note with it: water.
Data set [7] has as its system breast cancer MCF-7. Put plainly: In vivo antitumor activity, breast cancer MCF-7 in nude mice. The settings on record: MCF-7 in female nude mice, 30 mg (platinum)/kg, once a week, 4 times, tumor weighed 4 weeks later.

Compound `CN(C)CCCC1CC(=O)[O][Pt]2([NH]C3CCCCC3[NH]2)[O]C1=O` (stereo not drawn) [Compound 11, [2-(3-dimethylamino propyl)-succinato].[Cis-(1,2-trans-cyclohexyldiamine)]platinum (II)] yielded an LD50 value in the data set with normal mice of 0.571 mmol/kg. Further, the IC50 with Lung cancer H292 amounted to 13 µM; in data set [1], 45 µM; in the data set on Lewis lung cancer, 51 µM; with Colon cancer SW480 [2], 22 µM. In addition, in the data set with colon cancer SW480 [3] (10 mg (platinum)/kg), the “Tumor inhibition rate (x ± SD)” value is listed as 46.3 ± 9.88%.

In turn, `CCN(CC)CCC(CC(=O)[O-])C(=O)[O-].NC1CCCCC1N.[Pt+2]` (racemic) [Compound 10, [2-(2-diethyl amino ethyl)-succinato].[Cis-(1,2-trans-cyclohexyldiamine)]platinum (II)] displayed an LD50 value in the data set on normal mice of 0.595 mmol/kg. Besides, the IC50 was 24 µM in the data set with Lung cancer H292, 25 µM in data set [1], 28 µM in the data set on Lewis lung cancer and 5 µM in the data set with Colon cancer SW480 [2]. For the same compound, in the data set on colon cancer SW480 [3] (10 mg (platinum)/kg), the “Tumor inhibition rate (x ± SD)” value is 55.1 ± 9.07%.

In turn, `CC(=O)NC(CC(=O)[O-])C(=O)[O-].NC1CCCCC1N.[Pt+2]` (centres unmarked) [Contrast Embodiment 1, reference compound] returned an LD50 value in the data set on normal mice of 0.092 mmol/kg. The IC50 with Breast cancer MCF-7 [4] is 632 µM; in [5], 425 µM; in the data set with Lung cancer A549, 436 µM; in the data set on Lung cancer H292, 253 µM and 353 µM and 365 µM; in data set [1] it was 433 µM; in the data set on Lewis lung cancer, 545 µM. For the same compound, the IC50 in the data set with Colon cancer SW480 [2] was 615 µM; in the data set with Testis cell ST, 239 µM; in the data set on Gastric cancer MGC803, 525 µM; in the data set with Esophagus cancer ECA109, 467 µM.

`CCNCCC1CC(=O)[O][Pt]2([NH]C3CCCCC3[NH]2)[O]C1=O` (stereo not drawn) [Compound 12, [2-(2-ethylamino ethyl)-succinato].[Cis-(1,2-trans-cyclohexyldiamine)]platinum (II)]: in the data set with normal mice, the LD50 value stood at 0.602 mmol/kg. Further, the IC50 in the data set with Lung cancer H292 was 61 µM; in [1], 57 µM; in the data set on Lewis lung cancer, 69 µM; in the data set on Colon cancer SW480 [2] it was 72 µM. Moreover, the “Tumor inhibition rate (x ± SD)” value in the data set on colon cancer SW480 [3] (10 mg (platinum)/kg) was determined as 46.8 ± 9.17%.

In turn, `[NH2][Pt]1([NH2])[O]C(=O)CC(CCCN2CCCCC2)C(=O)[O]1` (stereo not drawn) [Compound 7, [2-(3-(1-piperidyl)-propyl)-succinato].[Cis-diamine]platinum (II)] yielded an LD50 at 14 days in data set [6] of 623 µmol/kg. The compound further displayed a solubility in the data set “physchem” of 139 mg/mL.

Compound `NCCCC1CC(=O)[O][Pt]([NH2])([NH2])[O]C1=O` (stereo not drawn) [Compound 4, [2-(3-amino propyl)-succinato].[Cis-diamine]platinum (II)] showed an LD50 at 14 days in data set [6] of 556 µmol/kg. Further, the solubility in “physchem” came to 155 mg/mL.

As to `CCN(CC)CCC1CC(=O)[O][Pt]([NH2])([NH2])[O]C1=O` (stereo not drawn) [Compound 5, [2-(2-diethylaminoethyl)-succinato].[Cis-diamine]platinum (II)], the LD50 at 14 days in data set [6] came out at 652 µmol/kg. In the data set “physchem”, this compound came in with a solubility of 166 mg/mL.

`NCCC(CC(=O)[O-])C(=O)[O-].N[C@@H]1CCCC[C@H]1N.[Pt+2]` (relative stereo) [Compound 9, [2-(2-aminoethyl)-succinato].[Cis-(1,2-trans-cyclohexyldiamine)]platinum (II)]: the LD50 value with normal mice came to 0.429 mmol/kg. Besides, the IC50 in the data set on Lung cancer H292 amounted to 26 µM; in [1] it was 17 µM; in the data set on Lewis lung cancer, 84 µM; in the data set on Colon cancer SW480 [2], 62 µM. Moreover, the “Tumor inhibition rate (x ± SD)” value in the data set on colon cancer SW480 [3] (10 mg (platinum)/kg) is reported as 44.8 ± 10.8%.

`CNCCC1CC(=O)[O][Pt]([NH2])([NH2])[O]C1=O` (stereo not drawn) [Compound 1, [2-(2-methylaminoethyl)-succinato].[Cis-diamine]platinum (II)]: the LD50 at 14 days in [6] stood at 523 µmol/kg. In “physchem”, this compound had a solubility of 208 mg/mL.

In the case of `CCN(CC)CCCCC1CC(=O)[O][Pt]([NH2])([NH2])[O]C1=O` (stereo not drawn) [Compound 27, [2-(4-diethylamino butyl)-succinato].[Cis-diamine]platinum (II) acetate], the 50% lethal dose (LD50) at 14 days in data set [6] was determined as 557 µmol/kg. Besides, the solubility in “physchem” turned out to be 143 mg/mL.

In the data set with normal mice, `NC1CCCCC1N.O=C([O-])CC(CCCN1CCCCC1)C(=O)[O-].[Pt+2]` (racemic) [Compound 13, [2-(3-(1-piperidyl)propyl)-succinato].[Cis-(1,2-trans-cyclohexyldiamine)]platinum (II)] gave an LD50 value of 0.542 mmol/kg. Moreover, the IC50 in the data set with Lung cancer H292 is 57 µM; in data set [1], 12 µM; in the data set on Lewis lung cancer, 32 µM; with Colon cancer SW480 [2] it was 95 µM. The “Tumor inhibition rate (x ± SD)” value with colon cancer SW480 [3] (10 mg (platinum)/kg) is listed as 56.3 ± 6.81%.

Take `CN(C)CCCC1CC(=O)[O][Pt]([NH2])([NH2])[O]C1=O` (stereo not drawn) [Compound 3, [2-(3-dimethylamino propyl)-succinato].[Cis-diamine]platinum (II)]: the LD50 at 14 days in data set [6] was 521 µmol/kg. This compound also returned a solubility in the data set “physchem” of 150 mg/mL.

The compound `CCCN(CCC)CCCC1CC(=O)[O][Pt]([NH2])([NH2])[O]C1=O` (stereo not drawn) [Compound 6, [2-(3-di-n-propylamino propyl)-succinato].[Cis-diamine]platinum (II)] displayed a median lethal dose (LD50) at 14 days in data set [6] of 449 µmol/kg. The same compound registered a solubility in the data set “physchem” of 130 mg/mL.

`NC(CC(=O)[O-])C(=O)[O-].NC1CCCCC1N.[Pt+2]` (racemic) [ADP, [DL-2-amino-succinato].[trans-hexamethylenediamine]platinum (II), reference compound] displayed an LD50 value in the data set on normal mice of 0.332 mmol/kg. For the same compound, the IC50 in the data set on Breast cancer MCF-7 [4] was found to be 73 µM; in data set [5], 156 µM; in the data set with Lung cancer A549 it was 145 µM; in the data set with Lung cancer H292, 61 µM; in data set [1], 107 µM; with Lewis lung cancer it was 162 µM. For the same compound, the IC50 in the data set with Colon cancer SW480 [2] is 98 µM; in the data set on Testis cell ST, 187 µM; in the data set on Gastric cancer MGC803, 160 µM; with Esophagus cancer ECA109, 98 µM and 163 µM. The “Tumor inhibition rate (x ± SD)” value is 45.3 ± 11.21% in the data set with colon cancer SW480 [3] (30 mg (platinum)/kg) and 68.3 ± 10.27 9% in the data set with breast cancer MCF-7 [7].

As a reminder, the IC50 is the concentration at which inhibition is half-maximal. The low end stands for greater potency, the high end for weaker potency. Usually LD50 stands for the dose expected to kill half of the subjects tested. For orientation: solubility means the concentration that dissolves in the medium under given conditions. A lower solubility goes with a poorly soluble substance.
